Columns and labels:
Assay in all cases: relative viability (nuclei count vs DMSO), 5 days (fraction); higher = more cells survive
Palbociclib + OSI-027 = compound: CC(=O)c1c(C)c2cnc(Nc3ccc(N4CCNCC4)cn3)nc2n(C2CCCC2)c1=O [Palbociclib] + COc1cccc2cc(-c3nc([C@H]4CC[C@H](C(=O)O)CC4)n4ncnc(N)c34)[nH]c12 [OSI-027] (partner 0.5 µM)
Procedure, shortened: (§1)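 One day after seeding in 1536-well plates, lung cancer cell lines were dosed by pin tool. Dosing was either single-drug or a fixed anchor-drug dose plus five library-drug doses (not always all listed) in √10 steps. After 5 days, nuclei were stained in one fix-and-stain step and counted on 4× images, and relative viability is the nuclei count of treated wells over that of vehicle wells, given as the median of duplicate plates.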

Palbociclib + Olaparib = compound: CC(=O)c1c(C)c2cnc(Nc3ccc(N4CCNCC4)cn3)nc2n(C2CCCC2)c1=O [Palbociclib] + O=C(c1cc(Cc2n[nH]c(=O)c3ccccc23)ccc1F)N1CCN(C(=O)C2CC2)CC1 [Olaparib] (partner 8 µM)
Procedure, shortened: as §1

Palbociclib + Bortezomib = compound: CC(=O)c1c(C)c2cnc(Nc3ccc(N4CCNCC4)cn3)nc2n(C2CCCC2)c1=O [Palbociclib] + CC(C)C[C@H](NC(=O)[C@H](Cc1ccccc1)NC(=O)c1cnccn1)B(O)O [Bortezomib] (partner 0.002 µM)
Procedure, shortened: as §1

Palbociclib + Crizotinib = compound: CC(=O)c1c(C)c2cnc(Nc3ccc(N4CCNCC4)cn3)nc2n(C2CCCC2)c1=O [Palbociclib] + C[C@@H](Oc1cc(-c2cnn(C3CCNCC3)c2)cnc1N)c1c(Cl)ccc(F)c1Cl [Crizotinib] (partner 1 µM)
Procedure, shortened: as §1

Cell Line: 201T
- relative viability (Palbociclib + OSI-027; first compound 0.01 µM): 0.763
- relative viability (Palbociclib + OSI-027; first compound 0.03162 µM): 0.676
- relative viability (Palbociclib + OSI-027; first compound 0.1 µM): 0.661
- relative viability (Palbociclib + OSI-027; first compound 0.3162 µM): 0.613
- relative viability (Palbociclib + OSI-027; first compound 1 µM): 0.338
- relative viability (Palbociclib + Olaparib; first compound 0.01 µM): 0.817
- relative viability (Palbociclib + Olaparib; first compound 0.03162 µM): 0.819
- relative viability (Palbociclib + Olaparib; first compound 0.1 µM): 0.781
- relative viability (Palbociclib + Olaparib; first compound 0.3162 µM): 0.684
- relative viability (Palbociclib + Olaparib; first compound 1 µM): 0.65
- relative viability (Palbociclib + Bortezomib; first compound 0.01 µM): 1.16
- relative viability (Palbociclib + Bortezomib; first compound 0.03162 µM): 0.954
- relative viability (Palbociclib + Bortezomib; first compound 0.1 µM): 1.04
- relative viability (Palbociclib + Bortezomib; first compound 0.3162 µM): 0.946
- relative viability (Palbociclib + Bortezomib; first compound 1 µM): 0.709
- relative viability (Palbociclib + Crizotinib; first compound 0.01 µM): 1.01
- relative viability (Palbociclib + Crizotinib; first compound 0.03162 µM): 0.992
- relative viability (Palbociclib + Crizotinib; first compound 0.1 µM): 0.922
- relative viability (Palbociclib + Crizotinib; first compound 0.3162 µM): 0.93
- relative viability (Palbociclib + Crizotinib; first compound 1 µM): 0.806

Cell Line: LCLC-97TM1
- relative viability (Palbociclib + OSI-027; first compound 0.01 µM): 0.586
- relative viability (Palbociclib + OSI-027; first compound 0.03162 µM): 0.353
- relative viability (Palbociclib + OSI-027; first compound 0.1 µM): 0.349
- relative viability (Palbociclib + OSI-027; first compound 0.3162 µM): 0.219
- relative viability (Palbociclib + OSI-027; first compound 1 µM): 0.221
- relative viability (Palbociclib + Olaparib; first compound 0.01 µM): 0.326
- relative viability (Palbociclib + Olaparib; first compound 0.1 µM): 0.308
- relative viability (Palbociclib + Olaparib; first compound 0.3162 µM): 0.311
- relative viability (Palbociclib + Olaparib; first compound 1 µM): 0.262
- relative viability (Palbociclib + Bortezomib; first compound 0.01 µM): 0.729
- relative viability (Palbociclib + Bortezomib; first compound 0.03162 µM): 0.514
- relative viability (Palbociclib + Bortezomib; first compound 0.1 µM): 0.396
- relative viability (Palbociclib + Bortezomib; first compound 0.3162 µM): 0.319
- relative viability (Palbociclib + Bortezomib; first compound 1 µM): 0.138
- relative viability (Palbociclib + Crizotinib; first compound 0.01 µM): 0.345
- relative viability (Palbociclib + Crizotinib; first compound 0.1 µM): 0.257
- relative viability (Palbociclib + Crizotinib; first compound 0.3162 µM): 0.313
- relative viability (Palbociclib + Crizotinib; first compound 1 µM): 0.259

Cell Line: BEN
- relative viability (Palbociclib + OSI-027; first compound 0.01 µM): 0.298
- relative viability (Palbociclib + OSI-027; first compound 0.03162 µM): 0.274
- relative viability (Palbociclib + OSI-027; first compound 0.1 µM): 0.255
- relative viability (Palbociclib + OSI-027; first compound 0.3162 µM): 0.252
- relative viability (Palbociclib + OSI-027; first compound 1 µM): 0.286
- relative viability (Palbociclib + Olaparib; first compound 0.01 µM): 1.01
- relative viability (Palbociclib + Olaparib; first compound 0.03162 µM): 0.992
- relative viability (Palbociclib + Olaparib; first compound 0.1 µM): 0.615
- relative viability (Palbociclib + Olaparib; first compound 0.3162 µM): 0.945
- relative viability (Palbociclib + Olaparib; first compound 1 µM): 0.594
- relative viability (Palbociclib + Bortezomib; first compound 0.01 µM): 0.94
- relative viability (Palbociclib + Bortezomib; first compound 0.03162 µM): 0.728
- relative viability (Palbociclib + Bortezomib; first compound 0.1 µM): 0.849
- relative viability (Palbociclib + Bortezomib; first compound 0.3162 µM): 0.674
- relative viability (Palbociclib + Bortezomib; first compound 1 µM): 0.353
- relative viability (Palbociclib + Crizotinib; first compound 0.01 µM): 0.831
- relative viability (Palbociclib + Crizotinib; first compound 0.03162 µM): 0.701
- relative viability (Palbociclib + Crizotinib; first compound 0.1 µM): 0.719
- relative viability (Palbociclib + Crizotinib; first compound 0.3162 µM): 0.722
- relative viability (Palbociclib + Crizotinib; first compound 1 µM): 0.475

Cell Line: NCI-H520
- relative viability (Palbociclib + OSI-027; first compound 0.01 µM): 0.21
- relative viability (Palbociclib + OSI-027; first compound 0.03162 µM): 0.228
- relative viability (Palbociclib + OSI-027; first compound 0.1 µM): 0.203
- relative viability (Palbociclib + OSI-027; first compound 0.3162 µM): 0.236
- relative viability (Palbociclib + OSI-027; first compound 1 µM): 0.212
- relative viability (Palbociclib + Olaparib; first compound 0.01 µM): 0.289
- relative viability (Palbociclib + Olaparib; first compound 0.03162 µM): 0.35
- relative viability (Palbociclib + Olaparib; first compound 0.1 µM): 0.255
- relative viability (Palbociclib + Olaparib; first compound 0.3162 µM): 0.199
- relative viability (Palbociclib + Olaparib; first compound 1 µM): 0.173
- relative viability (Palbociclib + Bortezomib; first compound 0.01 µM): 0.496
- relative viability (Palbociclib + Bortezomib; first compound 0.03162 µM): 0.496
- relative viability (Palbociclib + Bortezomib; first compound 0.1 µM): 0.35
- relative viability (Palbociclib + Bortezomib; first compound 0.3162 µM): 0.403
- relative viability (Palbociclib + Bortezomib; first compound 1 µM): 0.236
- relative viability (Palbociclib + Crizotinib; first compound 0.01 µM): 0.748
- relative viability (Palbociclib + Crizotinib; first compound 0.03162 µM): 0.551
- relative viability (Palbociclib + Crizotinib; first compound 0.1 µM): 0.648
- relative viability (Palbociclib + Crizotinib; first compound 0.3162 µM): 0.641
- relative viability (Palbociclib + Crizotinib; first compound 1 µM): 0.337

Cell Line: HCC-78
- relative viability (Palbociclib + OSI-027; first compound 0.01 µM): 0.424
- relative viability (Palbociclib + OSI-027; first compound 0.03162 µM): 0.382
- relative viability (Palbociclib + OSI-027; first compound 0.1 µM): 0.315
- relative viability (Palbociclib + OSI-027; first compound 0.3162 µM): 0.319
- relative viability (Palbociclib + OSI-027; first compound 1 µM): 0.254
- relative viability (Palbociclib + Olaparib; first compound 0.01 µM): 1.05
- relative viability (Palbociclib + Olaparib; first compound 0.03162 µM): 0.661
- relative viability (Palbociclib + Olaparib; first compound 0.1 µM): 0.695
- relative viability (Palbociclib + Olaparib; first compound 0.3162 µM): 0.636
- relative viability (Palbociclib + Olaparib; first compound 1 µM): 0.369
- relative viability (Palbociclib + Bortezomib; first compound 0.01 µM): 0.385
- relative viability (Palbociclib + Bortezomib; first compound 0.03162 µM): 0.451
- relative viability (Palbociclib + Bortezomib; first compound 0.1 µM): 0.366
- relative viability (Palbociclib + Bortezomib; first compound 0.3162 µM): 0.454
- relative viability (Palbociclib + Bortezomib; first compound 1 µM): 0.406
- relative viability (Palbociclib + Crizotinib; first compound 0.01 µM): 0.375
- relative viability (Palbociclib + Crizotinib; first compound 0.03162 µM): 0.328
- relative viability (Palbociclib + Crizotinib; first compound 0.1 µM): 0.266
- relative viability (Palbociclib + Crizotinib; first compound 0.3162 µM): 0.27
- relative viability (Palbociclib + Crizotinib; first compound 1 µM): 0.269

Cell Line: NCI-H2009
- relative viability (Palbociclib + OSI-027; first compound 0.01 µM): 0.64
- relative viability (Palbociclib + OSI-027; first compound 0.03162 µM): 0.481
- relative viability (Palbociclib + OSI-027; first compound 0.1 µM): 0.331
- relative viability (Palbociclib + OSI-027; first compound 0.3162 µM): 0.297
- relative viability (Palbociclib + OSI-027; first compound 1 µM): 0.194
- relative viability (Palbociclib + Olaparib; first compound 0.01 µM): 0.691
- relative viability (Palbociclib + Olaparib; first compound 0.03162 µM): 0.617
- relative viability (Palbociclib + Olaparib; first compound 0.1 µM): 0.545
- relative viability (Palbociclib + Olaparib; first compound 0.3162 µM): 0.54
- relative viability (Palbociclib + Olaparib; first compound 1 µM): 0.366
- relative viability (Palbociclib + Bortezomib; first compound 0.01 µM): 0.987
- relative viability (Palbociclib + Bortezomib; first compound 0.03162 µM): 0.867
- relative viability (Palbociclib + Bortezomib; first compound 0.1 µM): 0.68
- relative viability (Palbociclib + Bortezomib; first compound 0.3162 µM): 0.679
- relative viability (Palbociclib + Bortezomib; first compound 1 µM): 0.219
- relative viability (Palbociclib + Crizotinib; first compound 0.01 µM): 1.02
- relative viability (Palbociclib + Crizotinib; first compound 0.03162 µM): 0.913
- relative viability (Palbociclib + Crizotinib; first compound 0.1 µM): 0.838
- relative viability (Palbociclib + Crizotinib; first compound 0.3162 µM): 0.695
- relative viability (Palbociclib + Crizotinib; first compound 1 µM): 0.331

Cell Line: NCI-H1650
- relative viability (Palbociclib + OSI-027; first compound 0.01 µM): 0.701
- relative viability (Palbociclib + OSI-027; first compound 0.03162 µM): 0.404
- relative viability (Palbociclib + OSI-027; first compound 0.1 µM): 0.522
- relative viability (Palbociclib + OSI-027; first compound 0.3162 µM): 0.481
- relative viability (Palbociclib + OSI-027; first compound 1 µM): 0.403
- relative viability (Palbociclib + Olaparib; first compound 0.01 µM): 0.795
- relative viability (Palbociclib + Olaparib; first compound 0.03162 µM): 0.562
- relative viability (Palbociclib + Olaparib; first compound 0.1 µM): 0.551
- relative viability (Palbociclib + Olaparib; first compound 0.3162 µM): 0.642
- relative viability (Palbociclib + Olaparib; first compound 1 µM): 0.513
- relative viability (Palbociclib + Bortezomib; first compound 0.01 µM): 0.229
- relative viability (Palbociclib + Bortezomib; first compound 0.03162 µM): 0.227
- relative viability (Palbociclib + Bortezomib; first compound 0.1 µM): 0.176
- relative viability (Palbociclib + Bortezomib; first compound 0.3162 µM): 0.187
- relative viability (Palbociclib + Bortezomib; first compound 1 µM): 0.215
- relative viability (Palbociclib + Crizotinib; first compound 0.01 µM): 0.957
- relative viability (Palbociclib + Crizotinib; first compound 0.03162 µM): 0.724
- relative viability (Palbociclib + Crizotinib; first compound 0.1 µM): 0.776
- relative viability (Palbociclib + Crizotinib; first compound 0.3162 µM): 0.684
- relative viability (Palbociclib + Crizotinib; first compound 1 µM): 0.548

Cell Line: NCI-H2085
- relative viability (Palbociclib + OSI-027; first compound 0.01 µM): 0.658
- relative viability (Palbociclib + OSI-027; first compound 0.03162 µM): 0.55
- relative viability (Palbociclib + OSI-027; first compound 0.1 µM): 0.547
- relative viability (Palbociclib + OSI-027; first compound 0.3162 µM): 0.574
- relative viability (Palbociclib + OSI-027; first compound 1 µM): 0.369
- relative viability (Palbociclib + Olaparib; first compound 0.01 µM): 0.788
- relative viability (Palbociclib + Olaparib; first compound 0.03162 µM): 0.767
- relative viability (Palbociclib + Olaparib; first compound 0.1 µM): 0.712
- relative viability (Palbociclib + Olaparib; first compound 0.3162 µM): 0.584
- relative viability (Palbociclib + Olaparib; first compound 1 µM): 0.488
- relative viability (Palbociclib + Bortezomib; first compound 0.01 µM): 0.991
- relative viability (Palbociclib + Bortezomib; first compound 0.03162 µM): 0.99
- relative viability (Palbociclib + Bortezomib; first compound 0.1 µM): 0.969
- relative viability (Palbociclib + Bortezomib; first compound 0.3162 µM): 0.871
- relative viability (Palbociclib + Bortezomib; first compound 1 µM): 0.543
- relative viability (Palbociclib + Crizotinib; first compound 0.01 µM): 0.895
- relative viability (Palbociclib + Crizotinib; first compound 0.03162 µM): 0.823
- relative viability (Palbociclib + Crizotinib; first compound 0.1 µM): 0.513
- relative viability (Palbociclib + Crizotinib; first compound 0.3162 µM): 0.695
- relative viability (Palbociclib + Crizotinib; first compound 1 µM): 0.576

From the supplement of paper PMC10307832
